The results in this text go back to ChEMBL document CHEMBL1129485, “Bis(31/31') ([CYS(31), Trp(32), Nva(34)] NPY-(31-36)): a specific NPY Y-1 receptor antagonist” (J Med Chem, 1996).

By Ki is commonly meant a measure of affinity in units of concentration, obtained from inhibition or displacement. Low values mean a stronger hold on the target, high ones a looser hold on the target.

The structures appear in SMILES notation. Positions of bridges follow the written chain, without caps; N, C: chain ends. Non-standard residues stand in square brackets, D forms with d. Residues, ends and D or L forms follow the SMILES beside them. Chains are numbered I, II in the order given. Nva = CCC[C@H](N)C(=O)O Some results are limits rather than exact numbers.

Test [1] addresses T1, Neuropeptide Y receptor type 1 (Homo sapiens, UniProt P25929).
T1 sequence (P25929 whole entry): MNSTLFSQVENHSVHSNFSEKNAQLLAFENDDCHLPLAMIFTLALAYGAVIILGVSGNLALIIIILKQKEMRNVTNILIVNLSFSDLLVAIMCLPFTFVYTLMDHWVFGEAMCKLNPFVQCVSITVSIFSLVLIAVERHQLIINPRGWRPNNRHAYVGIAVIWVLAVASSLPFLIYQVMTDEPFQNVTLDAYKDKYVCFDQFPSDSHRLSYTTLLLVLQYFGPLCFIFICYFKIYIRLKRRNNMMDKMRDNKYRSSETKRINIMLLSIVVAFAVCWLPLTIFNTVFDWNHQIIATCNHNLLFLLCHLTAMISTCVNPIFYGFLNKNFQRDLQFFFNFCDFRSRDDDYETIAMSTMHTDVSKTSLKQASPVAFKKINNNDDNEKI
Description: Compound was tested for the displacement of [125I]-PYY (SK-N-MC) from Neuropeptide Y receptor type 1 in the membranes prepared from cells. The test is classed as cell membranes. On the technique in general: In a radioligand displacement assay an active substance lowers the binding of a labelled ligand.

The target in test [2] is T2, Neuropeptide Y receptor type 2 (Homo sapiens, UniProt P49146).
T2 sequence (P49146 whole entry): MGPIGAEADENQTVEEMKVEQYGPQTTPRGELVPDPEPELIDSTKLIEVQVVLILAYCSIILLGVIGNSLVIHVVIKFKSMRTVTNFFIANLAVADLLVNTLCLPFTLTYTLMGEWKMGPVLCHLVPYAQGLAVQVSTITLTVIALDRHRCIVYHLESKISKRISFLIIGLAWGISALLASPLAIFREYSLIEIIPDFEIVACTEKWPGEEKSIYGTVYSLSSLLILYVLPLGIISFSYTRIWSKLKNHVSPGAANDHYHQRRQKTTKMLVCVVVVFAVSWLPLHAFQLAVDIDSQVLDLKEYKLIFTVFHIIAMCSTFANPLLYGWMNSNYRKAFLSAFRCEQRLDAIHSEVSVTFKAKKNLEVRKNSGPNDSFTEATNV
As to the kind of experiment: Compound was tested for the displacement of [125I]-PYY(3-36) (SK-N-BE2) from Neuropeptide Y receptor type 2 in the membranes prepared from cells. It is filed as cell membranes.

In the case of `CCC[C@H](NC(=O)[C@H](CCCN=C(N)N)NC(=O)[C@@H](Cc1c[nH]c2ccccc12)NC(=O)[C@H](CSSC[C@H](NC(=O)[C@H](CC(C)C)NC(=O)[C@H](Cc1c[nH]c2ccccc12)NC(=O)[C@@H](N)Cc1ccc(O)cc1)C(=O)N[C@H](Cc1c[nH]c2ccccc12)C(=O)N[C@@H](CCCN=C(N)N)C(=O)N[C@@H](CCC)C(=O)N[C@@H](CCCN=C(N)N)C(=O)N[C@@H](Cc1ccc(O)cc1)C(N)=O)NC(=O)[C@H](CC(C)C)NC(=O)[C@H](Cc1c[nH]c2ccccc12)NC(=O)[C@@H](N)Cc1ccc(O)cc1)C(=O)N[C@@H](CCCN=C(N)N)C(=O)N[C@@H](Cc1ccc(O)cc1)C(N)=O`, the Ki in test [1] was determined as 143 nM; in test [2], 704 nM.

For `CCC[C@H](NC(=O)[C@H](CCCN=C(N)N)NC(=O)[C@H](Cc1c[nH]c2ccccc12)NC(=O)[C@H](CSSC[C@H](NC(=O)[C@H](CC(C)C)NC(=O)[C@H](Cc1c[nH]c2ccccc12)NC(=O)[C@@H](N)Cc1ccc(O)cc1)C(=O)N[C@@H](Cc1c[nH]c2ccccc12)C(=O)N[C@@H](CCCN=C(N)N)C(=O)N[C@@H](CCC)C(=O)N[C@@H](CCCN=C(N)N)C(=O)N[C@@H](Cc1ccc(O)cc1)C(N)=O)NC(=O)[C@H](CC(C)C)NC(=O)[C@H](Cc1c[nH]c2ccccc12)NC(=O)[C@@H](N)Cc1ccc(O)cc1)C(=O)N[C@@H](CCCN=C(N)N)C(=O)N[C@@H](Cc1ccc(O)cc1)C(N)=O`, the Ki in test [1] worked out at 93 nM; in test [2], 621 nM.

Turning to `CCC[C@H](NC(=O)[C@H](CCCNC(=N)N)NC(=O)[C@H](Cc1c[nH]c2ccccc12)NC(=O)[C@@H](N)CSSC[C@H](N)C(=O)N[C@@H](Cc1c[nH]c2ccccc12)C(=O)N[C@@H](CCCNC(=N)N)C(=O)N[C@@H](CCC)C(=O)N[C@@H](CCCNC(=N)N)C(=O)N[C@@H](Cc1ccc(O)cc1)C(N)=O)C(=O)N[C@@H](CCCNC(=N)N)C(=O)N[C@@H](Cc1ccc(O)cc1)C(N)=O` (I: H-CWR[Nva]RY-NH2 / II: H-CWR[Nva]RY-NH2; disulfide I:1-II:1), the Ki in test [1] was 46 nM; in test [2] it was over 10000 nM.

On to `CCC[C@H](NC(=O)[C@H](CCCN=C(N)N)NC(=O)[C@@H](NC(=O)[C@H](CSSC[C@H](NC(=O)[C@H](CC(C)C)NC(=O)[C@@H](NC(=O)[C@@H](N)Cc1ccc(O)cc1)[C@@H](C)CC)C(=O)N[C@H](C(=O)N[C@@H](CCCN=C(N)N)C(=O)N[C@@H](CCC)C(=O)N[C@@H](CCCN=C(N)N)C(=O)N[C@@H](Cc1ccc(O)cc1)C(N)=O)[C@@H](C)O)NC(=O)[C@H](CC(C)C)NC(=O)[C@@H](NC(=O)[C@@H](N)Cc1ccc(O)cc1)[C@@H](C)CC)[C@@H](C)O)C(=O)N[C@@H](CCCN=C(N)N)C(=O)N[C@@H](Cc1ccc(O)cc1)C(N)=O` (I: H-YILCTR[Nva]RY-NH2 / II: H-YILCTR[Nva]RY-NH2; disulfide I:4-II:4), for which the Ki was found to be 49 nM in test [1] and 3980 nM in test [2].

As for `CCC[C@H](NC(=O)[C@H](CCCNC(=N)N)NC(=O)[C@H](Cc1c[nH]c2ccccc12)NC(=O)[C@H](CSSC[C@H](NC(=O)[C@H](CC(C)C)NC(=O)[C@@H](NC(=O)[C@@H](N)Cc1ccc(O)cc1)[C@@H](C)CC)C(=O)N[C@@H](Cc1c[nH]c2ccccc12)C(=O)N[C@@H](CCCNC(=N)N)C(=O)N[C@@H](CCC)C(=O)N[C@@H](CCCNC(=N)N)C(=O)N[C@@H](Cc1ccc(O)cc1)C(N)=O)NC(=O)[C@H](CC(C)C)NC(=O)[C@@H](NC(=O)[C@@H](N)Cc1ccc(O)cc1)[C@@H](C)CC)C(=O)N[C@@H](CCCNC(=N)N)C(=O)N[C@@H](Cc1ccc(O)cc1)C(N)=O` (I: H-YILCWR[Nva]RY-NH2 / II: H-YILCWR[Nva]RY-NH2; disulfide I:4-II:4), the inhibition constant (Ki) came out at 95 nM in test [1] and 988 nM in test [2].

On to `CCC[C@H](NC(=O)[C@H](CCCN=C(N)N)NC(=O)[C@@H](NC(=O)[C@H](CSSC[C@H](NC(=O)[C@H](CC(C)C)NC(=O)[C@H](CC(N)=O)NC(=O)[C@@H](NC(=O)[C@@H](N)Cc1ccc(O)cc1)[C@@H](C)CC)C(=O)N[C@H](C(=O)N[C@@H](CCCN=C(N)N)C(=O)N[C@@H](CCC)C(=O)N[C@@H](CCCN=C(N)N)C(=O)N[C@@H](Cc1ccc(O)cc1)C(N)=O)[C@@H](C)O)NC(=O)[C@H](CC(C)C)NC(=O)[C@H](CC(N)=O)NC(=O)[C@@H](NC(=O)[C@@H](N)Cc1ccc(O)cc1)[C@@H](C)CC)[C@@H](C)O)C(=O)N[C@@H](CCCN=C(N)N)C(=O)N[C@@H](Cc1ccc(O)cc1)C(N)=O` (I: H-YINLCTR[Nva]RY-NH2 / II: H-YINLCTR[Nva]RY-NH2; disulfide I:5-II:5), for which the Ki was determined as 36 nM in test [1] and 2080 nM in test [2].

Turning to `CCC[C@H](NC(=O)[C@H](CCCN=C(N)N)NC(=O)[C@H](Cc1c[nH]c2ccccc12)NC(=O)[C@H](CSSC[C@H](NC(=O)[C@H](CC(C)C)NC(=O)[C@H](CC(N)=O)NC(=O)[C@@H](NC(=O)[C@@H](N)Cc1ccc(O)cc1)[C@@H](C)CC)C(=O)N[C@@H](Cc1c[nH]c2ccccc12)C(=O)N[C@@H](CCCN=C(N)N)C(=O)N[C@@H](CCC)C(=O)N[C@@H](CCCN=C(N)N)C(=O)N[C@@H](Cc1ccc(O)cc1)C(N)=O)NC(=O)[C@H](CC(C)C)NC(=O)[C@H](CC(N)=O)NC(=O)[C@@H](NC(=O)[C@@H](N)Cc1ccc(O)cc1)[C@@H](C)CC)C(=O)N[C@@H](CCCN=C(N)N)C(=O)N[C@@H](Cc1ccc(O)cc1)C(N)=O` (I: H-YINLCWR[Nva]RY-NH2 / II: H-YINLCWR[Nva]RY-NH2; disulfide I:5-II:5), the Ki amounted to 44 nM in test [1] and 3410 nM in test [2].
